Source: patent US20160258954A1, “METHOD OF DIAGNOSING AND TREATING EPSTEIN BARR VIRUS-BASED MYALGIC ENCEPHALOMYELITIS CHRONIC FATIGUE SYNDROME PATIENTS USING A SERUM ANTIBODY ASSAY” (CFS, LLC, priority 2015, published 2016)

What was measured:
[1] = system: SEID patients; assay: Reviews of antiviral therapy of EBV, CMV and HHV6 subset Group A SEID patients; assay type: in vivo, human; conditions: cidofovir: unpublished studies
Source text: These antiviral agents inhibit the respective DNA polymerases of the appropriate CMV, EBV, HHV6 herpesviruses.[8] […] Herpesvirus (EBV, CMV, HHV6) abortive lytic replication may be associated with SEID.

[2] = system: Group A ME/CFS patients (EBV, HCMV, HHV6 subsets); assay: Systematic review 2001-2007 of Group A ME/CFS patients given subset-directed antiviral treatment; assay type: in vivo, human; conditions: 79 of 106 group A patients, pooled valacyclovir (EBV subset) or valganciclovir (HCMV, HHV6 subsets); p<0.0001
Source text: A ME/CFS diagnostic panel was created utilizing initial Fukuda/Carruthers criteria and a systematic review of 142 ME/CFS patients. Two groups of ME/CFS patients were found. Group A patients had elevated serum IgG antibody titers to the herpes viruses Epstein-Barr virus (EBV), cytomegalovirus (HCMV) and Human Herpes virus 6 (HHV6) in single or multiple virus infection, but no other co-infections. Group B patients had similar elevated herpes virus antibody titers, plus serologic evidence of co-infections, tick-borne (“Borrelia burgdorferi”, “Anaplasma phagocytophilia”, “Babesia microti”); “Mycoplasma pneumoniae”; or adult rheumatoid fever. One hundred and six group A ME/CFS patients were followed from 2001-2007, and treated with subset directed valacyclovir EBV subset or valganciclovir (HCMV, HHV6 subsets). The data included over 7000 patient visits and 35,000 data entries.

[3] = system: CFS patients; assay: Cidofovir treatment of CFS patients; assay type: in vivo, human
Method: In general, to provide a therapeutically effective amount of the antiviral agent, a suitable effective dose will be in the range of 0.1 to 20 grams a day and preferably in the range between 0.3 to 15 grams per day, more preferably about 0.5 to 10 grams per day. The dosage of course, varies with the body weight of the patient up to a 70 kg individual, a dose of 4 grams per day may be appropriate (e.g., […] valacyclovir every six hours). The desired dose can be presented as two-four or more smaller doses administered at appropriate intervals throughout the day. These smaller doses may be administered in unit's dosage forms. For example, for valacyclovir and famciclovir, the dosage can be, for example 14 mg/kg every 6 hours (1.0 g every 6 hours for a 70 kg person). The dosage of valacyclovir and famciclovir can be, for example, up to or at least about 0.5-8 grams every 6 hours. The dosage of valgancyclovir can be, for example, from about 450-900 mg every 12 hours, or up to or at least about 100-2000 mg or more every 12 hours, depending on for example patient weight and tolerance. For maribavir the dosage can be, for example, for about 400-500 mg every 8 hours or for example up to or at least about 100-1000 or more every 8 hours. […] Accordingly, the dosage is adjusted to […] every two weeks. […]

[4] = system: EBV subset ME/CFS patients; assay: Energy Index Point Score (EIPS) of six EBV subset ME/CFS patients treated with valacyclovir for over 12 months; assay type: in vivo, human
Source text: FIG. 2A is a table depicting the clinical results that establish EBV Abortive Lytic replication in the first of six EBV subset ME/CFS patients treated with valacyclovir for over 12 months;
As depicted in FIG. 1, the Energy Index (EI) point score (Copyright, Lerner AM and Deeter R G, 1999), is a simple and reliable metric that can be used to easily evaluate the functional capacity of the CFS patient at each patient-physician visit. *The CFS Energy Index point score can also be determined by questionnaire (US copyright, 1999 Lerner A. M., Deeter, R. J) reproduced with permission. **Kcal per day is calculated for a 70 kg CFS patient. The EI is measured on a scale of 1-10. Validation of the EI was done using two methods: 1.) 20 CFS patients and 22 healthy adults, matched for sex, age, place, and time; EI, CFS=3.6; EI, healthy adults=9.9, p=<0.0001; and 2.) 55 CFS patients evaluated at the same time by the EI and fatigue severity score, correlation 0.67, p=0.0066. Improvement to disappearance of CFS symptoms correlates with an increasing EI.
The validated energy index point score generally can be calculated for each CFS patient every 3 months at physician visits. […]
Demographics. […] The EIPS is a validated (FSS-9 item scale with high degree of internal consistency measured by Cronbach's alpha) is a Functional Activity Appraisal: energy Index Score Healthcare worker Appraisal.

[5] = biological target: EBV thymidine kinase (Epstein-Barr virus, UniProt P03177); conditions: after gastrointestinal absorption; cited from earlier work
[6] = Group A patients

EBV thymidine kinase, sequence (P03177 whole entry): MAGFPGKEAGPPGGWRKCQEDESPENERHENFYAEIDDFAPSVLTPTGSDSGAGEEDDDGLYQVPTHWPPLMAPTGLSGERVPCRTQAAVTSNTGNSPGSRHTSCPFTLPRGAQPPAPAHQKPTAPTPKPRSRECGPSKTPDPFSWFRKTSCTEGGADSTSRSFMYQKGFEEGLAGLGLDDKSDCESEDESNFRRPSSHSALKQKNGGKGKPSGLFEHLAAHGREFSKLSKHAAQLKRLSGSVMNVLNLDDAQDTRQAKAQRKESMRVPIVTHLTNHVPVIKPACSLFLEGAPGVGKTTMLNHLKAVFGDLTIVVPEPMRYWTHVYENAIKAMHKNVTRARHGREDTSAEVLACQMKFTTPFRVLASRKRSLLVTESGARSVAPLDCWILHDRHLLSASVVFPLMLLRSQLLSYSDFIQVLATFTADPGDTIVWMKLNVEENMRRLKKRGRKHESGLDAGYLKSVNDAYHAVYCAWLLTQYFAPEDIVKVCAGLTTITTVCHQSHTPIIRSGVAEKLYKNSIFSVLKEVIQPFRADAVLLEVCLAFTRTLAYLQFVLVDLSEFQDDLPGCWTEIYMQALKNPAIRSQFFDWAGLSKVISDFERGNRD

| Structure (SMILES) | therapeutic result in SEID patients [1] | Group A patients recovered to resume normal life [2] [%] | also measured |
| --- | --- | --- | --- |
| CC(C)[C@H](N)C(=O)OCC(CO)OCn1cnc2c(=O)nc(N)[nH]c21 (stereo partly drawn) [valganciclovir] | salutary results | 74.5 | – |
| Nc1ccn(C[C@@H](CO)OCP(=O)(O)O)c(=O)n1 [cidofovir] | salutary results | – | effectiveness relative to other antiviral agents ([3]; administered intravenously): two to three time more effective; treatment time ([3]; patients over 50 and/or CFS over 10 years, reduced from over one year): 6-9 months |
| CC(C)[C@H](N)C(=O)OCCOCn1cnc2c(=O)[nH]c(N)nc21 [valacyclovir] | salutary results | 74.5 | final EIPS values ([4]; 5 group A ME/CFS patients, one year later, initial EIPS 3.5-5.0 (one patient 6)): 7-8; final EIPS value ([4]; single group B ME/CFS patient (Borrelia burgdorferi co-infection), baseline 3.5): 5; greater affinity for EBV thymidine kinase than for the host cellular enzyme [5]: 200 × |
| Nc1nc2c(ncn2COCCO)c(=O)[nH]1 [acylocivir] | – | – | absorption [6]: typically not absorbed |
| CC(=O)OCC(CCn1cnc2cnc(N)nc21)COC(C)=O [famciclovir] | salutary results | – | – |
